The source of these data is patent US20040224958A1, “Pyridopyrimidinone derivatives for treatment of neurodegenerative disease” (priority 2000, published 2004).

pIC50: −log10 of the molar value. Read-outs that look alike come from different tables or passages of the source.

The target in one experiment is cdk4/D (Homo sapiens, UniProt P11802). The experiment is described as follows: Cyclin-Dependent Kinase 4 (cdk4) Assay. It counts as biochemical. To be noted: read-out: cdk4/D IC50.
In the next experiment the target is Cdk5/p25 (Homo sapiens, UniProt Q00535). The experiment is described as follows: Cyclin-Dependent Kinase 5 High Throughput Screening (cdk5-HTS) Assay. It counts as biochemical. To be noted: high throughput screen. The essentials: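 IC50 determined from 33P incorporation into GST-RbCOOH captured on glutathione plates and read by scintillation counting. Reaction: 1.0 μg/mL Cdk5/p25, 20 μM [γ33P]ATP, pH 7.4 Tris buffer with MgCl2 and DTT, 30 min at room temperature, stopped with EDTA.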

Another experiment concerns the target cdk2/cyclinE (Homo sapiens, UniProt P24941). The experiment is described as follows: Cyclin-Dependent Kinase Assay cdk2/cyclinE.
The target in another experiment is cdk2/cyclinA (Homo sapiens, UniProt P24941). The experiment is described as follows: Cyclin-Dependent Kinase Assay cdk2/cyclinA.
A further experiment has as its target cdc2/cyclinB (Homo sapiens, UniProt P06493). The experiment is described as follows: Cyclin-Dependent Kinase Assay cdc2/cyclinB.

Chain of cdc2/cyclinB (P06493 whole entry): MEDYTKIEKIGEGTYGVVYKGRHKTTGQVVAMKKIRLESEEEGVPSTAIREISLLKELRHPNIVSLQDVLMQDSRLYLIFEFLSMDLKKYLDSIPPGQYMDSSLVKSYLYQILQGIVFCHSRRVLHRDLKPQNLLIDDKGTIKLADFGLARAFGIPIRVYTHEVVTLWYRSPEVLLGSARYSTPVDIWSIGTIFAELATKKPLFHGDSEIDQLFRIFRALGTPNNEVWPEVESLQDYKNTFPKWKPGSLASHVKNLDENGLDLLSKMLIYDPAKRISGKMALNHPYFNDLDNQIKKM
Chain of cdc2/cyclinB (P14635 whole entry, further chain): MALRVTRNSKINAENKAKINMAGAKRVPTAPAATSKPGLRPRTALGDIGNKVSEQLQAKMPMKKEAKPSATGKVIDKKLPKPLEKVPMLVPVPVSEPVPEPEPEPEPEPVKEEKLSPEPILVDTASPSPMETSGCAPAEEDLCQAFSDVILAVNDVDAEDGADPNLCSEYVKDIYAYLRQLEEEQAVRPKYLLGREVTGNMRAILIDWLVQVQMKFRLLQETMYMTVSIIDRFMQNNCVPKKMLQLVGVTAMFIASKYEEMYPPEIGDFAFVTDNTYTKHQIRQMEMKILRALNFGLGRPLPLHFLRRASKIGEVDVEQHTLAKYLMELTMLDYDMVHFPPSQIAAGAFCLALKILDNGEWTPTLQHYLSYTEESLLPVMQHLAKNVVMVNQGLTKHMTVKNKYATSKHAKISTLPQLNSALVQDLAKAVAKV
Chain of cdk4/D (P11802 whole entry): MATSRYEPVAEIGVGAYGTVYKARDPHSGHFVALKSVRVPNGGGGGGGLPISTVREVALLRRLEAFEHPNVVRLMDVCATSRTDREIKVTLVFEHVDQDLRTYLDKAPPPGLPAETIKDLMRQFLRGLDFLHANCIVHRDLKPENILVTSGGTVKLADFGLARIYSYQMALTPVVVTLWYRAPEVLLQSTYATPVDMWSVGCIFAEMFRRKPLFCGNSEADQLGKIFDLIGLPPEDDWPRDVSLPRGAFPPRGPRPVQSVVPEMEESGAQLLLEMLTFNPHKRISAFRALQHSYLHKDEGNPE
Chain of cdk4/D (P24385 whole entry, further chain): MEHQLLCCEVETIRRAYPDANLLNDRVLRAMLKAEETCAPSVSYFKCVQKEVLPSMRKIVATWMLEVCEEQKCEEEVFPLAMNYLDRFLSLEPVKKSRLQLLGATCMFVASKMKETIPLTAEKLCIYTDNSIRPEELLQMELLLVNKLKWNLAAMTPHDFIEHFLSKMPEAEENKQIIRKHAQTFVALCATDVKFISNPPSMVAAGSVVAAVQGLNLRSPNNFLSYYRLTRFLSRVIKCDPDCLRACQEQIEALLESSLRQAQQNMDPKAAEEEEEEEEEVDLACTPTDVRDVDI
Experimental for cdk2/cyclinE: Cyclin-Dependent Kinase Assays (cdk2/cyclinE, cdk2/cyclinA, cdc2/cyclinB)
All components except the ATP were added to the wells, and the plate was placed on a plate mixer for 2 minutes. The reaction was begun by addition of [^32P]ATP, and the plate was incubated at 25° C. for 15 minutes. The reaction was terminated by addition of 0.1 mL of 20% TCA. The plate was kept at 4° C. for at least 1 hour to allow the substrate to precipitate. The wells were then washed five times with 0.2 mL of 10% TCA and ^32p incorporation determined with a beta plate counter (Wallac Inc., Gaithersburg, Md.).

With “2-(4-Bromo-3-trifluoromethyl-phenylamino)-8-cyclopentyl-8H-pyrido[2,3-d]pyrimidin-7-one [Example 561]”, the pIC50 was 6.32 on cdk4/D; 6.36 on Cdk5/p25; 6.82 at cdk2/cyclinE (read-out: cdk2/E IC50); 6.66 on cdk2/cyclinA (read-out: cdk2/A IC50); 6.46 at cdc2/cyclinB (read-out: cdk1/B IC50).
Consider “2-(4-Chloro-3-methyl-phenylamino)-8-isopropyl-8H-pyrido[2,3-d]pyrimidin-7-one [Example 416]”, for which the pIC50 on cdk4/D is 6.74; against Cdk5/p25, 7.42; at cdk2/cyclinE (read-out: cdk2/E IC50), 6.66; at cdk2/cyclinA (read-out: cdk2/A IC50), 6.46; at cdc2/cyclinB (read-out: cdk1/B IC50), 6.55.
Regarding “8-(1-Ethyl-propyl)-2-(3-trifluoromethyl-phenylamino)-8H-pyrido[2,3-d]pyrimidin-7-one [Example 485]”, the pIC50 on cdk4/D is 6.63; against Cdk5/p25, 6.19; on cdk2/cyclinE (read-out: cdk2/E IC50), 6.88; on cdk2/cyclinA (read-out: cdk2/A IC50) it was 6.22; at cdc2/cyclinB (read-out: cdk1/B IC50), 6.62.
“8-Cyclopentyl-2-(2,4,6-trifluoro-phenylamino)-8H-pyrido[2,3-d]pyrimidin-7-one [Example 473]”: the pIC50 at cdk4/D is 6.29; at Cdk5/p25 it was 7.17; at cdk2/cyclinE (read-out: cdk2/E IC50), 6.33; at cdk2/cyclinA (read-out: cdk2/A IC50), 6.48; at cdc2/cyclinB (read-out: cdk1/B IC50) it was 6.40.
For “8-Cyclopentyl-2-(3-fluoro-4-methoxy-phenylamino)-8H-pyrido[2,3-d]pyrimidin-7-one [Example 542]”, the pIC50 at cdk4/D was 8.02; at Cdk5/p25, 8.11; at cdk2/cyclinE (read-out: cdk2/E IC50), 7.46; on cdk2/cyclinA (read-out: cdk2/A IC50), 7.12; on cdc2/cyclinB (read-out: cdk1/B IC50) it was 7.07.
With “8-Cyclopropylmethyl-2-(1H-indazol-6-ylamino)-8H-pyrido[2,3-d]pyrimidin-7-one [Example 583]”, the pIC50 at cdk4/D is 5.89; against Cdk5/p25, 6.98; at cdk2/cyclinE (read-out: cdk2/E IC50) it was 6.70; on cdk2/cyclinA (read-out: cdk2/A IC50), 6.59; at cdc2/cyclinB (read-out: cdk1/B IC50), 6.45.
As to `Cn1c(=O)ccc2cnc(Nc3ccccc3)nc21` [Example 285, 8-Methyl-2-phenylamino-81H-pyrido[2,3-d]pyrimidin-7-one], the pIC50 is 5.56 on cdk4/D; 6.59 against Cdk5/p25; 5.64 at cdk2/cyclinE (cdk2/E IC50); 5.55 at cdk2/cyclinA (cdk2/A IC50); 6.06 at cdc2/cyclinB.
Consider `CCn1c(=O)ccc2cnc(Nc3ccc4[nH]ncc4c3)nc21` [Example 286, 8-Ethyl-2-(1H-indazol-5-ylamino)-8H-pyrido[2,3-d]pyrimidin-7-one], for which the pIC50 on cdk4/D was 6.32; against Cdk5/p25, 6.96; at cdk2/cyclinE (cdk2/E IC50), 6.65; against cdk2/cyclinA (cdk2/A IC50), 6.20; against cdc2/cyclinB it was 6.56.
Taken in the same sequence, the figures for `CCn1c(=O)ccc2cnc(Nc3ccc4[nH]nnc4c3)nc21` [Example 287, 2-(1H-Benzotriazol-5-ylamino)-8-ethyl-8H-pyrido[2,3-d]pyrimidin-7-one] were 6.09, 7.09, 6.83, 6.44 and 6.46.
Turning to `CCn1c(=O)ccc2cnc(Nc3ccc(NC(=O)OC(C)(C)C)cc3)nc21` [Example 288, [4-(8-Ethyl-7-oxo-7,8-dihydro-pyrido[2,3-d]pyrimidin-2-ylamino)-phenyl]-carbamic acid tert-butyl ester], the pIC50 was 6.02 on cdk4/D; 6.53 against Cdk5/p25; 5.97 against cdk2/cyclinE (cdk2/E IC50); 5.90 against cdk2/cyclinA (cdk2/A IC50); 6.31 on cdc2/cyclinB.
As to `CCn1c(=O)ccc2cnc(Nc3ccc(O)cc3F)nc21` [Example 289, 8-Ethyl-2-(2-fluoro-4-hydroxy-phenylamino)-8H-pyrido[2,3-d]pyrimidin-7-one], the pIC50 was 5.49 on cdk4/D; 6.14 against Cdk5/p25; 5.93 at cdk2/cyclinE (cdk2/E IC50); 5.70 against cdk2/cyclinA (cdk2/A IC50); 5.90 against cdc2/cyclinB.
For the compound `CCn1c(=O)ccc2cnc(Nc3ccc(O)c(Cl)c3)nc21` [Example 290, 2-(3-Chloro-4-hydroxy-phenylamino)-8-ethyl-8H1-pyrido[2,3-d]pyrimidin-7-one], the pIC50 was 5.77 on cdk4/D; 6.61 against Cdk5/p25; 6.74 against cdk2/cyclinE (cdk2/E IC50); 6.37 on cdk2/cyclinA (cdk2/A IC50); 6.78 against cdc2/cyclinB.
On to `CCn1c(=O)ccc2cnc(Nc3cc(Cl)c(O)c(Cl)c3)nc21` [Example 291, 2-(3,5-Dichloro-4-hydroxy-phenylamino)-8-ethyl-8H-pyrido[2,3-d]pyrimidin-7-one], for which the pIC50 at cdk4/D was 5.69; against Cdk5/p25 it was 6.35; against cdk2/cyclinE (cdk2/E IC50) it was 6.35; against cdk2/cyclinA (cdk2/A IC50) it was 6.10; at cdc2/cyclinB, 6.36.
`CCn1c(=O)ccc2cnc(Nc3ccc(F)c(C(F)(F)F)c3)nc21` [Example 293, 8-Ethyl-2-(4-fluoro-3-trifluoromethyl-phenylamino)-8H-pyrido[2,3-d]pyrimidin-7-one]: the pIC50 on cdk4/D is 5.70; against Cdk5/p25, 7.40; against cdk2/cyclinE (cdk2/E IC50), 6.60; against cdk2/cyclinA (cdk2/A IC50), 5.82; against cdc2/cyclinB, 6.37.
The corresponding values for `CCn1c(=O)ccc2cnc(Nc3ccc(F)c(C)c3)nc21` [Example 294, 8-Ethyl-2-(4-fluoro-3-methyl-phenylamino)-8H-pyrido[2,3-d]pyrimidin-7-one] are 6.39, 7.37, 6.89, 6.19 and 6.68.
As for `CCn1c(=O)ccc2cnc(Nc3ccc(S(N)(=O)=O)cc3)nc21` [Example 295, 4-(8-Ethyl-7-oxo-7,8-dihydro-pyrido[2,3-d]pyrimidin-2-ylamino)-benzenesulfonamide], the pIC50 was 6.02 on cdk4/D; 7.19 against Cdk5/p25; 7.24 against cdk2/cyclinE (cdk2/E IC50); 6.89 against cdk2/cyclinA (cdk2/A IC50); 6.41 against cdc2/cyclinB.
The corresponding values for `CCn1c(=O)ccc2cnc(Nc3cc(OC)cc(C(F)(F)F)c3)nc21` [Example 300, 8-Ethyl-2-(3-methoxy-5-trifluoromethyl-phenylamino)-8H-pyrido[2,3-d]pyrimidin-7-one] are 5.55, 6.37, 6.02, 5.41 and 6.21.
As for `CCn1c(=O)ccc2cnc(Nc3ccc(F)c(F)c3)nc21` [Example 301, 2-(3,4-Difluoro-phenylamino)-8-ethyl-8H-pyrido[2,3-d]pyrimidin-7-one], the pIC50 was 6.85 at cdk4/D; 6.92 on Cdk5/p25; 6.49 at cdk2/cyclinE (cdk2/E IC50); 6.08 on cdk2/cyclinA (cdk2/A IC50); 6.22 against cdc2/cyclinB.
In the case of `CCn1c(=O)ccc2cnc(Nc3ccc(C#N)cc3)nc21` [Example 304, 4-(8-Ethyl-7-oxo-7,8-dihydro-pyrido[2,3-d]pyrimidin-2-ylamino)-benzonitrile], the pIC50 was 5.54 at cdk4/D; 6.01 against Cdk5/p25; 5.80 against cdk2/cyclinE (cdk2/E IC50); 5.82 against cdk2/cyclinA (cdk2/A IC50); 5.66 against cdc2/cyclinB.
With `CCCn1c(=O)ccc2cnc(Nc3ccccc3)nc21` [Example 309, 2-Phenylamino-8-propyl-8H-pyrido[2,3-d]pyrimidin-7-one], the pIC50 was 6.45 on cdk4/D; 6.84 at Cdk5/p25; 6.80 against cdk2/cyclinE (cdk2/E IC50); 6.38 on cdk2/cyclinA (cdk2/A IC50); 6.37 at cdc2/cyclinB.
On to `CCCn1c(=O)ccc2cnc(Nc3ccc(OC)c(Cl)c3)nc21` [Example 310, 2-(3-Chloro-4-methoxy-phenylamino)-8-propyl-8H-pyrido[2,3-d]pyrimidin-7-one], for which the pIC50 on cdk4/D is 6.31; against Cdk5/p25 it was 7.16; against cdk2/cyclinE (cdk2/E IC50), 6.86; on cdk2/cyclinA (cdk2/A IC50), 6.48; against cdc2/cyclinB, 6.67.
The corresponding values for `CCCn1c(=O)ccc2cnc(Nc3cccc(C(F)(F)F)c3)nc21` [Example 313, 8-Propyl-2-(3-trifluoromethyl-phenylamino)-8H-pyrido[2,3-d]pyrimidin-7-one] are 5.52, 6.51, 6.48, 5.83 and 6.44.
As for `CCCn1c(=O)ccc2cnc(Nc3ccc(Br)c(C(F)(F)F)c3)nc21` [Example 314, 2-(4-Bromo-3-trifluoromethyl-phenylamino)-8-propyl-8H-pyrido[2,3-d]pyrimidin-7-one], the pIC50 is 5.67 at cdk4/D; 6.94 at Cdk5/p25; 6.28 on cdk2/cyclinE (cdk2/E IC50); 5.62 against cdk2/cyclinA (cdk2/A IC50); 6.37 on cdc2/cyclinB.
Consider `CCCn1c(=O)ccc2cnc(Nc3cccc(I)c3)nc21` [Example 316, 2-(3-Iodo-phenylamino)-8-propyl-8H-pyrido[2,3-d]pyrimidin-7-one], for which the pIC50 on cdk4/D is 6.31; at Cdk5/p25, 7.25; on cdk2/cyclinE (cdk2/E IC50) it was 7.20; against cdk2/cyclinA (cdk2/A IC50), 6.53; at cdc2/cyclinB it was 7.03.
With `CCCn1c(=O)ccc2cnc(Nc3ccc(S(N)(=O)=O)cc3)nc21` [Example 317, 4-(7-Oxo-8-propyl-7,8-dihydro-pyrido[2,3-d]pyrimidin-2-ylamino)-benzenesulfonamide], the pIC50 is 6.01 on cdk4/D; 7.37 against Cdk5/p25; 7.50 on cdk2/cyclinE (cdk2/E IC50); 7.09 at cdk2/cyclinA (cdk2/A IC50); 7.05 against cdc2/cyclinB.
